Measured values taken from US8551541B2, “Disinfectant making air fresh and preparation and method and use thereof” (priority 2009, dated 2013).

Tested on: influenza A virus FM1 strain
Format: cell-based

Question: With NC(=O)c1ncn([C@@H]2O[C@H](CO)[C@@H](O)[C@H]2O)n1 [Ribavirin] as the molecule, how does the “inhibitory effect on FM1 (in words)” value read?
Answer: markedly inhibitory effect
